System: 699152-130-R-J1-PDC complex spheroid viability
Experiment: Anticancer human tumor 699152-130-R-J1-PDC patient-derived pancreatic carcinoma cell line growth inhibition [POLQ]
Conditions: for IC50: curve of first compound; for viability, T/C: stronger effect = lower value
Procedure, shortened: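 Growth inhibition in 3D: complex spheroids (tumor PDC, HUVEC, MSC) treated with POLQ inhibitor combinations; where Cmax unknown, highest tested concentration 10 microM, except SN-38 at 1 microM.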

[1] = second compound 0.0316 µM, first compound 0.0316 µM
[2] = second compound 0.0316 µM, first compound 0.1 µM
[3] = second compound 0.0316 µM, first compound 0.316 µM
[4] = second compound 0.0316 µM, first compound 1 µM
[5] = second compound 0.0316 µM, first compound 3.16 µM
[6] = second compound 0.0316 µM, first compound 10 µM
[7] = second compound 0.1 µM, first compound 0.0316 µM
[8] = second compound 0.1 µM, first compound 0.1 µM
[9] = second compound 0.1 µM, first compound 0.316 µM
[10] = second compound 0.1 µM, first compound 1 µM
[11] = second compound 0.1 µM, first compound 3.16 µM
[12] = second compound 0.1 µM, first compound 10 µM
[13] = second compound 0.316 µM, first compound 0.0316 µM
[14] = second compound 0.316 µM, first compound 0.1 µM
[15] = second compound 0.316 µM, first compound 0.316 µM
[16] = second compound 0.316 µM, first compound 1 µM
[17] = second compound 0.316 µM, first compound 3.16 µM
[18] = second compound 0.316 µM, first compound 10 µM
[19] = second compound 1 µM, first compound 0.0316 µM
[20] = second compound 1 µM, first compound 0.1 µM
[21] = second compound 1 µM, first compound 0.316 µM
[22] = second compound 1 µM, first compound 1 µM
[23] = second compound 1 µM, first compound 3.16 µM
[24] = second compound 1 µM, first compound 10 µM
[25] = second compound 3.16 µM, first compound 0.0316 µM
[26] = second compound 3.16 µM, first compound 0.1 µM
[27] = second compound 3.16 µM, first compound 0.316 µM
[28] = second compound 3.16 µM, first compound 1 µM
[29] = second compound 3.16 µM, first compound 3.16 µM
[30] = second compound 3.16 µM, first compound 10 µM
[31] = second compound 10 µM, first compound 0.0316 µM
[32] = second compound 10 µM, first compound 0.1 µM
[33] = second compound 10 µM, first compound 0.316 µM
[34] = second compound 10 µM, first compound 1 µM
[35] = second compound 10 µM, first compound 3.16 µM
[36] = second compound 10 µM, first compound 10 µM
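Note: spheroids exposed to agents for 7 days before viability reading.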
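Throughout, for viability, T/C: percent of DMSO vehicle control viability so 100% = vehicle and 0% = no viable signal.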

Compound `CCc1cc2c(N3CCc4c(cc(Cn5ccnc5)cc4-c4cn(C)nc4C(F)(F)F)C3=O)ccnc2c(OC)n1` + Cc1cccc(N(C)C(=O)C2C(O)CCN2c2nc(C)cc(C(F)(F)F)c2C#N)c1 has an IC50 (second compound 0.0316 µM) of over 10 µM, an IC50 (second compound 0.1 µM) of over 10 µM and an IC50 (second compound 0.316 µM) of over 10 µM. It also gave an IC50 (second compound 1 µM) of over 10 µM, an IC50 (second compound 3.16 µM) of over 10 µM and an IC50 (second compound 10 µM) of over 10 µM. The viability, T/C [1] was 80%, the viability, T/C [2] was 90.4% and the viability, T/C [3] was 105%. It also gave a viability, T/C [4] of 114%, a viability, T/C [5] of 103% and a viability, T/C [6] of 95%. For the same compound, the viability, T/C [7] was 75.8%, the viability, T/C [8] was 89.3% and the viability, T/C [9] was 88.1%. For the same compound, the viability, T/C [10] was 94.2%, the viability, T/C [11] was 97.3% and the viability, T/C [12] was 94.9%. The viability, T/C [13] was 86.7%, the viability, T/C [14] was 101% and the viability, T/C [15] was 91.5%. The viability, T/C [16] was 102%, the viability, T/C [17] was 103% and the viability, T/C [18] was 93.6%. The viability, T/C [19] was 101%, the viability, T/C [20] was 93% and the viability, T/C [21] was 98.7%. It also gave a viability, T/C [22] of 86.8%, a viability, T/C [23] of 105% and a viability, T/C [24] of 91.7%. It also gave a viability, T/C [25] of 99.2%, a viability, T/C [26] of 94.5% and a viability, T/C [27] of 98.4%. The viability, T/C [28] was 95.1%, the viability, T/C [29] was 90.9% and the viability, T/C [30] was 99.8%. It also gave a viability, T/C [31] of 85.6%, a viability, T/C [32] of 93.1% and a viability, T/C [33] of 92.5%. It also gave a viability, T/C [34] of 94.7%, a viability, T/C [35] of 95.1% and a viability, T/C [36] of 95.5%.
`COc1cc2cc(C(=O)CCC(=O)O)sc2cc1OC` + Cc1cccc(N(C)C(=O)C2C(O)CCN2c2nc(C)cc(C(F)(F)F)c2C#N)c1 showed an IC50 (second compound 0.0316 µM) of over 10 µM, an IC50 (second compound 0.1 µM) of over 10 µM and an IC50 (second compound 0.316 µM) of over 10 µM. For the same compound, the IC50 (second compound 1 µM) was over 10 µM, the IC50 (second compound 3.16 µM) was over 10 µM and the IC50 (second compound 10 µM) was over 10 µM. For the same compound, the viability, T/C [1] was 99.4%, the viability, T/C [2] was 91.8% and the viability, T/C [3] was 92.6%. It also gave a viability, T/C [4] of 98.7%, a viability, T/C [5] of 110% and a viability, T/C [6] of 95.3%. It also gave a viability, T/C [7] of 113%, a viability, T/C [8] of 108% and a viability, T/C [9] of 106%. The viability, T/C [10] was 90.3%, the viability, T/C [11] was 121% and the viability, T/C [12] was 93.2%. It also gave a viability, T/C [13] of 93%, a viability, T/C [14] of 105% and a viability, T/C [15] of 92.5%. For the same compound, the viability, T/C [16] was 102%, the viability, T/C [17] was 114% and the viability, T/C [18] was 94.9%. The viability, T/C [19] was 94.8%, the viability, T/C [20] was 99.4% and the viability, T/C [21] was 92.1%. For the same compound, the viability, T/C [22] was 106%, the viability, T/C [23] was 107% and the viability, T/C [24] was 107%. For the same compound, the viability, T/C [25] was 102%, the viability, T/C [26] was 97.8% and the viability, T/C [27] was 104%. The viability, T/C [28] was 105%, the viability, T/C [29] was 89.1% and the viability, T/C [30] was 93.3%. For the same compound, the viability, T/C [31] was 92.2%, the viability, T/C [32] was 102% and the viability, T/C [33] was 105%. It also gave a viability, T/C [34] of 96%, a viability, T/C [35] of 98.9% and a viability, T/C [36] of 103%.
`COc1ccc([C@@H](O)c2cc(-c3ncnc4cc(N5CCOCC5)ccc34)c(F)cc2Cl)nn1` + Cc1cccc(N(C)C(=O)C2C(O)CCN2c2nc(C)cc(C(F)(F)F)c2C#N)c1 was tested, and the IC50 (second compound 0.0316 µM) was 4.08 µM, the IC50 (second compound 0.1 µM) was 3.67 µM and the IC50 (second compound 0.316 µM) was 4.14 µM. The IC50 (second compound 1 µM) was 3.54 µM, the IC50 (second compound 3.16 µM) was 3.35 µM and the IC50 (second compound 10 µM) was 4.46 µM. For the same compound, the viability, T/C [1] was 96.5%, the viability, T/C [2] was 94.2% and the viability, T/C [3] was 98.3%. It also gave a viability, T/C [4] of 78.9%, a viability, T/C [5] of 58.8% and a viability, T/C [6] of 22.6%. The viability, T/C [7] was 101%, the viability, T/C [8] was 106% and the viability, T/C [9] was 87.7%. For the same compound, the viability, T/C [10] was 85.3%, the viability, T/C [11] was 52.5% and the viability, T/C [12] was 22.9%. The viability, T/C [13] was 106%, the viability, T/C [14] was 88.9% and the viability, T/C [15] was 90.4%. The viability, T/C [16] was 84%, the viability, T/C [17] was 56.9% and the viability, T/C [18] was 22.6%. It also gave a viability, T/C [19] of 109%, a viability, T/C [20] of 95.8% and a viability, T/C [21] of 90.1%. It also gave a viability, T/C [22] of 78.9%, a viability, T/C [23] of 51.4% and a viability, T/C [24] of 21.2%. It also gave a viability, T/C [25] of 111%, a viability, T/C [26] of 94.7% and a viability, T/C [27] of 83.6%. The viability, T/C [28] was 75.2%, the viability, T/C [29] was 51% and the viability, T/C [30] was 27.4%. For the same compound, the viability, T/C [31] was 101%, the viability, T/C [32] was 100% and the viability, T/C [33] was 88.8%. It also gave a viability, T/C [34] of 74.1%, a viability, T/C [35] of 60.2% and a viability, T/C [36] of 30.9%.
With `O=C(Nc1ccc(O)c(NS(=O)(=O)c2ccc(F)cc2)c1)c1ccc(-c2ccccc2)cc1` + Cc1cccc(N(C)C(=O)C2C(O)CCN2c2nc(C)cc(C(F)(F)F)c2C#N)c1 the IC50 (second compound 0.0316 µM) was over 10 µM, the IC50 (second compound 0.1 µM) was over 10 µM and the IC50 (second compound 0.316 µM) was over 10 µM. For the same compound, the IC50 (second compound 1 µM) was over 10 µM, the IC50 (second compound 3.16 µM) was over 10 µM and the IC50 (second compound 10 µM) was over 10 µM. It also gave a viability, T/C [1] of 107%, a viability, T/C [2] of 91.1% and a viability, T/C [3] of 95.9%. It also gave a viability, T/C [4] of 102%, a viability, T/C [5] of 108% and a viability, T/C [6] of 78%. For the same compound, the viability, T/C [7] was 110%, the viability, T/C [8] was 103% and the viability, T/C [9] was 100%. For the same compound, the viability, T/C [10] was 106%, the viability, T/C [11] was 101% and the viability, T/C [12] was 78.7%. The viability, T/C [13] was 111%, the viability, T/C [14] was 104% and the viability, T/C [15] was 114%. It also gave a viability, T/C [16] of 105%, a viability, T/C [17] of 98.4% and a viability, T/C [18] of 69.3%. For the same compound, the viability, T/C [19] was 103%, the viability, T/C [20] was 110% and the viability, T/C [21] was 111%. The viability, T/C [22] was 97%, the viability, T/C [23] was 107% and the viability, T/C [24] was 83.3%. The viability, T/C [25] was 107%, the viability, T/C [26] was 112% and the viability, T/C [27] was 111%. For the same compound, the viability, T/C [28] was 102%, the viability, T/C [29] was 114% and the viability, T/C [30] was 81.2%. For the same compound, the viability, T/C [31] was 89.1%, the viability, T/C [32] was 96% and the viability, T/C [33] was 103%. It also gave a viability, T/C [34] of 95.1%, a viability, T/C [35] of 97% and a viability, T/C [36] of 63.7%.

From PubChem BioAssay AID1963835 (Molecular Pharmacology Branch, DTP, NCI, 2024)
